# How the values were obtained:
# [1] = tested on: dorsal raphe 5-HT neurons; assay: Inhibitory effect on the firing activity of dorsal raphe 5-HT neurons (extracellular unitary recordings, anesthetized rats); type: in vivo, rat
# Protocol: The experiments were carried out in male Sprague-Dawley rats (Harlan, Gannat, FRANCE) weighing 250 to 300 g at the day of the experiment and which have been kept under standard laboratory conditions (12:12 light-dark cycle with free access to food and water). The animals were anesthetized with chloral hydrate (400 mg/kg, i.p.). Supplemental doses were given to maintain constant anesthesia and to prevent any nociceptive reaction to a tail pinch.
# Extracellular unitary recordings of dorsal raphe 5-HT neurons were performed with single-barreled glass micropipettes preloaded with fiberglass filaments in order to facilitate filling. The tip was broken back to 2 to 4 μm and filled with a 2M NaCl solution saturated with Blue Chicago dye. The rats (control or treated) were placed in a stereotaxic frame and a burr hole was drilled on the midline 1 mm anterior to lambda. Dorsal raphe 5-HT neurons were encountered over a distance of 1 mm starting immediately below the ventral border of the Sylvius aqueduct. These neurons were identified using the criteria of Aghajanian (Aghajanian, G. K., Essays Neurochem Neuropharmacol 2000, 3: 1-32): a slow (0.5-2.5 Hz) and regular firing rate and long-duration (0.8-1.2 ms) positive action potentials.
# To determine putative synergistic effect of Compound II (2-(6-Fluoro-1H-indol-3-ylsulfanyl)-benzyl]-methyl-amine) on the inhibitory action of 5-HTP (25 mg/kg, i.v.) on the firing activity of dorsal raphe 5-HT neurons, a dose of Compound II corresponding to 20-30% of inhibition, was injected prior to and after the administration of 5-HTP.
# Statistical analysis was performed with SigmaStat for Window version 4.0 software (Jandel Corporation). Average was the mean±SEM. Significance was considered for p<0.05.
# [2] = tested on: isolation-induced aggression; details: mouse, with subeffective dose of L; cited from earlier work
# [3] = biological target: human serotonin transporter expressed in COS-1 cell membranes (Homo sapiens, UniProt P31645); details: cited from earlier work
# ultrasonic vocalization = details: rat, cited from earlier work
# allosteric site of SERT = allosteric site of SERT (Homo sapiens, UniProt P31645); assay: Dissociation binding studies (3H-escitalopram), allosteric modulation of the serotonin transporter
# Protocol: Whether a compound operates through an allosteric mechanism can be determined by in vitro dissociation experiments. Dissociation binding experiments measure the “off rate” (koff) for a radioligand of the protein. After radioligand and transporter protein are allowed to bind (i.e. form a complex), then ligand is added to block further binding of radioligand to the transporter so that the rate of dissociation can be measured. Binding (as measured by radioactivity of the radioligand:transporter complex) is measured at various times to determine the rate at which the radioligand dissociates from the transporter. Dissociation rate constants can be used to determine the half-life of the bound complex. Half-life determinations can be used to ascertain whether a compound is an allosteric modulator of the human SERT.
# [4] = biological target: norepinephrine transporter (NET) (Homo sapiens, UniProt P23975); assay: In vitro reuptake inhibitory potency at the norepinephrine transporter; type: biochemical
# serotonin transporter = biological target: T1, serotonin transporter (Rattus norvegicus, UniProt P31652); assay: Inhibition of 3H-serotonin uptake in rat brain synaptosomes; type: biochemical; details: 3H-5-HT 10 nM, read-out: uptake inhibitory potency (IC50)
# T1 construct: The P2 fraction (synaptosomal fraction) was obtained by centrifugation; from tissue; host or cells: Male Wistar rat brain (minus cerebellum), P2 synaptosomal fraction
# Protocol: In order to test compounds at the primary, high-affinity binding site of the serotonin transporter, i.e. determine if a compound is a serotonin reuptake inhibitor, inhibition of the uptake of serotonin (5-HT) was determined.
# By the following method, the inhibition of the uptake of ^3H-serotonin (^3H-5-HT) (10 nM) in rat brain synaptosomes by test compounds was determined in vitro. Exemplary methods, and also results of serotonin uptake for specific SRIs, is described in Hyttel, J., Psychopharmacology 1978, 60:13-18; Hyttel, J., Prog. Neuro-Psychopharmacol. & Biol. Psychait. 1982, 6:277-295; Hyttel, J. & Larsen, Acta Pharmacol. Tox. 1985, 56(suppl. 1):146-153; Sanchez, C. and Hyttel, J. European J. Pharm. […]
# To 400 μl of the synaptosomal suspension (5 mg original tissue) on ice, 100 μl test compound in water was added. […] After shaking for 1 h and storage for 2 h in the dark, the content of radioactivity was determined by liquid scintillation counting (cpm). Uptake was obtained by subtracting the non-specific binding and passive transport measured in the presence of 10 μM […]. The measured cpm was plotted against test compound concentration, and the best fitting s-shaped curve was drawn. The uptake inhibitory potencies are expressed as IC50 values in nM (logarithmic means). Two full concentration-response curves were measured using five concentrations of test compound in triplicate.
# Chain of norepinephrine transporter (NET) (P23975 whole entry, species assumed): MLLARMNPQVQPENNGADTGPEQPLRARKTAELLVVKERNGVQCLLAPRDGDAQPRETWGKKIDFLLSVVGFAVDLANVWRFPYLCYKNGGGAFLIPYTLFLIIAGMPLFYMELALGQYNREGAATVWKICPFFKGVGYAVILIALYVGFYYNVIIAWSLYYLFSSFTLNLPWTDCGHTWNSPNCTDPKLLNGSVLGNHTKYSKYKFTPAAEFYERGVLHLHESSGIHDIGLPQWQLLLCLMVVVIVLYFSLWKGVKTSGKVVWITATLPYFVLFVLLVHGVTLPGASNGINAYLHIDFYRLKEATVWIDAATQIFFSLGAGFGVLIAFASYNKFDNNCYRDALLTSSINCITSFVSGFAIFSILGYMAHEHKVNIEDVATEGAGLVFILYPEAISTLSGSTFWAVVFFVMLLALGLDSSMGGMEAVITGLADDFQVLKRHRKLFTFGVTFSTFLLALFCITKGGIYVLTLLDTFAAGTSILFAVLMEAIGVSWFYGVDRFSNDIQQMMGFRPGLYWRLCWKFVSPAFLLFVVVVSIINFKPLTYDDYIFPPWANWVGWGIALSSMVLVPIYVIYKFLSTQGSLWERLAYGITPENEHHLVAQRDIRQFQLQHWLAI
# Chain of human serotonin transporter expressed in COS-1 cell membranes (P31645 whole entry): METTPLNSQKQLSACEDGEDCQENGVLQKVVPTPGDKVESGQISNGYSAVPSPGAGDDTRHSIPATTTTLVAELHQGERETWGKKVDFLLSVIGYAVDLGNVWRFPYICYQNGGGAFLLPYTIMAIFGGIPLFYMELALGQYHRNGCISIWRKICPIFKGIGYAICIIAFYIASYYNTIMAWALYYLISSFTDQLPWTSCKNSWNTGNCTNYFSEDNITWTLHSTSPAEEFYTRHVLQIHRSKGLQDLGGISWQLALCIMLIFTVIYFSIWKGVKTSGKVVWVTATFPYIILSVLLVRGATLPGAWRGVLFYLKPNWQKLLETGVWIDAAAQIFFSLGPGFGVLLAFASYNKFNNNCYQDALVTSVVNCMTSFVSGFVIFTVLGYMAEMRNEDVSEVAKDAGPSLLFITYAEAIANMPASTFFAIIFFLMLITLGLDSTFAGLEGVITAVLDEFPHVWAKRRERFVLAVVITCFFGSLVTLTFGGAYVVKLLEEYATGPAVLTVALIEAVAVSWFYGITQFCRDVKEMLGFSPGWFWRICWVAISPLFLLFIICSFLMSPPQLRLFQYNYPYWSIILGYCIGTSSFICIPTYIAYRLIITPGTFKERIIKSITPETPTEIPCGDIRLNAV
# Chain of allosteric site of SERT (P31645 whole entry): as above
# T1 sequence (P31652 whole entry): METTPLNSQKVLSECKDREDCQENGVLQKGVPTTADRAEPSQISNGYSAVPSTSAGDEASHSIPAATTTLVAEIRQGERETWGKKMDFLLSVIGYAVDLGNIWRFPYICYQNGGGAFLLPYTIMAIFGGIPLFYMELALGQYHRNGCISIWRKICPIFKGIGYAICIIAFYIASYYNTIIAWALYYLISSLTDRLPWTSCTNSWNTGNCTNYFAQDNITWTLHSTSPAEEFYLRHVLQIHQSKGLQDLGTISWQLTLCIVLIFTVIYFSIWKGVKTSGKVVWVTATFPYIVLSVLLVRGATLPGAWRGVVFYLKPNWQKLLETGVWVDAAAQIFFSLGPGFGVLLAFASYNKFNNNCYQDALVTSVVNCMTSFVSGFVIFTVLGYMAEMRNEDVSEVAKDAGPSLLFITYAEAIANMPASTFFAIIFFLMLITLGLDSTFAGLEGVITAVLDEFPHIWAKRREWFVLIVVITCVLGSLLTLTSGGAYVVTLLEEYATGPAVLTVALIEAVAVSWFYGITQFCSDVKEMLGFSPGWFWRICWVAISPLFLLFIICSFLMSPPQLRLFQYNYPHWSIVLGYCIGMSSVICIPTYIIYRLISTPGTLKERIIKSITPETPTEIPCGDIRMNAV
compound,measurement,setting,value
"NC(Cc1c[nH]c2ccc(O)cc12)C(=O)O (stereo not drawn) [Compound 5-HTP, 2-amino-3-(5-hydroxy-1H-indol-3-yl)-propanoic acid]",reduction of dorsal raphe 5-HT neuron firing,"[1]; 5-HTP 25 mg/kg i.v. alone (first injection), six rats, mean±SEM",13.4±2.26%
same,further decrease of firing,"[1]; 5-HTP 25 mg/kg injected after Compound II 0.025 mg/kg, six rats",70.53±2.76%
Fc1ccc([C@@H]2CCNC[C@H]2COc2ccc3c(c2)OCO3)cc1 [paroxetine],"antiaggressive effect on co-administration of a subeffective dose of L, 5-HTP",[2],greatly potentiated
CNCC[C@H](Oc1cccc2ccccc12)c1cccs1 [duloxetine],stabilizing effect on radioligand:human serotonin transporter complex (dissociation from primary site),[3],little or no stabilizing effect
CN(C)CCC[C@@]1(c2ccc(F)cc2)OCc2cc(C#N)ccc21 [escitalopram],"anxiolytic response to co-treatment with L, 5-HTP","ultrasonic vocalization; co-treatment with L, 5-HTP",markedly enhanced
CN(C)CCC[C@]1(c2ccc(F)cc2)OCc2cc(C#N)ccc21 [R-citalopram],ultrasonic vocalization compared to controls,ultrasonic vocalization; concomitant treatment,significant increase
CNCc1ccccc1Sc1c[nH]c2cc(F)ccc12 [Compound II],effect on dissociation rate of 3H-escitalopram,allosteric site of SERT,significantly slowed
same,further decrease of firing,"[1]; Compound II 0.025 mg/kg as second injection after 5-HTP 25 mg/kg, six rats",82.43±2.78%
same,inhibition at 0.025 mg/kg,"[1]; Rattus norvegicus, Neuron, Compound II 0.025 mg/kg alone (first injection), six rats, mean±SEM",24.1 ± 4.98%
same,inhibitory effect at NET (in vitro reuptake inhibitory potency),[4],exerts an inhibitory effect
same,IC50,serotonin transporter,0.35 nM
COc1ccccc1N1CCN(CCN(C(=O)C2CCCCC2)c2ccccn2)CC1 [WAY-100635],effect on spontaneous firing rate of the neuron,[1]; administered after Compound II and 5-HTP,increases the spontaneous firing rate
